Where two headings read alike, the source gives them in different places.

Data set [1] is described as follows: in vivo. The conditions noted are these: rat, po. On the procedure:
(§1) At the end of the infusions and at fixed time points, CSF samples (50 μL) were withdrawn and blood samples (100 μL) were collected. The CSF was withdrawn using the cisternal puncture method described by van den Berg et al., which requires a single needle stick and allows the collection of serials (40–50 μL) CSF samples that are virtually blood-free. A total volume of about a maximum of 150 μL of CSF/rat (i.e., three 50 μL samples/rat) was collected during the experimental session, choosing the time points (n = 3–5, taking into account a maximum of three collections per rat) in order to allow the restoring of the CSF physiological volume.
Each type of formulation was administered to a group of four rats.
In particular, 4.2 mL of EU-CD formulation were administered to rats (500 mg/kg dose).
In particular, 320 μL of EU-SL formulation were administered to rats (500 mg/kg dose).
Free cinnamaldehyde (100 mg) was orally administered by gavage to rats kept fasting since 24 h. In particular, 95 μL of cinnamaldehyde (density = 1.05 g/mL) were dissolved in 905 μL of corn oil and administered to rats (400 mg/kg dose).
The solid AC-GN formulation (14% w/w cinnamaldehyde) was mixed with palatable food in order to induce their oral intake by the rats kept fasting since 24 h. In particular, the rats assumed a dose of 100 mg of cinnamaldehyde (400 mg/kg) contained in 714 mg of AC-GN.
After the administrations, blood (100 μL) and CSF samples (50 μL) were serially collected at fixed time points from each rat and treated as described above in order to quantify the compounds.

A short description of data set [2]: in vivo. The conditions noted are these: male, Wistar, rat, in vivo, iv. On the procedure:
A saline solution (0.9% NaCl) was added to a mixture of cinnamaldehyde (density = 1.05 g/mL) and Cremophor® RH 40 (1:1 v/v) in order to obtain a 12.5 mg/mL cinnamaldehyde emulsion in the presence of ethanol (10% of final volume). A group (n = 4) of male Wistar rats (200–250 g) fasted for 24 h was anesthetized during the experimental period and received 0.4 mL via a femoral intravenous infusion (rate = 0.2 mL/min; 2 min) of 12.5 mg/mL cinnamaldehyde emulsion (20 mg/kg cinnamaldehyde dose).
as §1
The chromatographic apparatus consisted of a modular system (model LC-10 AD VD pump and model SPD-10A VP variable wavelength UV−vis detector; Shimadzu, Kyoto, Japan) and an injection valve with 20 μL sample loop (model 7725; Rheodyne, IDEX, Torrance, CA, USA). Separations were performed at room temperature on a 5 μm Hypersil BDS C-18 column (150 mm × 4.6 mm i.d.; Alltech Italia Srl, Milan, Italy) equipped with a guard column packed with the same Hypersil material. The volume injection was 10 μL. Data acquisition and processing were performed on a personal computer using CLASS-VP Software, version 7.2.1 (Shimadzu Italia, Milan, Italy).
For CSF simulation, standard aliquots of balanced solution (Dulbecco’s phosphate buffer saline—DPBS—without calcium and magnesium) in the presence of 0.45 mg/mL BSA were used.

For data set [3] the following is noted: rats, cited from earlier work.
A further data set deals with PC12 cells. The experiment in a line: Dopamine release from neuronal differentiated PC12 cells (ELISA). The format is cell-based, rat. On the procedure:
PC12 cell line (RRID:CVCL_0481), derived from rat adrenal gland pheochromocytoma, was a kind gift from Dr Federica Brugnoli from the Department of Translational Medicine, University of Ferrara, Ferrara (Italy). The cells were grown in RPMI-1640 (HiGlutaXL) medium (Microtech, Naples, Italy), supplemented with 100 µg/mL streptomycin and 100 IU/mL penicillin, 10% horse serum (HS), and 5% fetal bovine serum (FBS). PC12 cells were gently removed from the 4 µg/cm^2 collagen IV-coated flask with a rubber scraper, transferred as cell suspension into a Falcon tube and resuspended through a sterile tip to avoid any clumping, then split into separate flasks twice weekly. To differentiate neuronal phenotypes, PC12 cells were seeded in 4 µg/cm^2 collagen IV-coated 12-well plates at a density of 5000 cells/well, and they were then left to adhere to the well for 24 h. […] All the proliferative and differentiated cultures were maintained at 37 °C in a humidified 5% CO2 atmosphere.
PC12 cells differentiated to neuronal-like phenotype in collagen IV-treated 12-well plates, were first synchronized all to the same circadian phase and cell cycle by a serum shock (50% HS and 50% DMEM HiGlutaXL) for 2 h at 37 °C [49] to achieve a synchronous release of dopamine. Synchronization medium was then aspirated off, cells were washed with 3 × 1 mL and equilibrated for 15 min at 37 °C in 1 mL of Krebs Ringer HEPES (KRH) physiological buffer, following the recipe of Mount et al. (25 mM HEPES/Tris, pH 7.4, 1.2 mM KH2PO4, 125 mM NaCl, 4.8 mM KCl, 1.2 mM MgSO4, 2.2 mM CaCl2, 5.6 mM glucose, 1.0 mM ascorbic acid, 10 µM pargyline, 1.0 µM nomifensine). […] To remove cell debris, all samples of 1 mL incubation KRH at the end of treatments were centrifuged at 1000× g for 20 min at 4 °C and stored at −20 °C until dopamine levels were determined by ELISA assay.
Dopamine levels in 1 mL incubation KRH buffer were detected by means of an ELISA assay, based on the […] ELISA principle for detection of dopamine, following manufacturer’s instructions (IBL International, Hamburg, Germany–catalog no: RE59161; purchased from Tecan Italia S.r.I, Milan, Italy). After the substrate reaction, the intensity of the developed color was proportional to the amount of dopamine, detected at 450 nm using a microplate reader spectrophotometer (Sunrise® Microplate Reader, Tecan Trading AG, Männedorf, Switzerland). Results of samples were determined directly using the standard curve. Results are presented as mean ± SE values of four independent experiments. Data were plotted and analyzed with GraphPad software (Prism, version 7.0, San Diego, CA, USA).
On the technique in general: In an ELISA, binding on a coated surface is turned into a signal by an enzyme label.

Take `C=CCc1ccc(O)c(OC)c1` [Eugenol]: the AUC (as a rule, the area under the concentration-time curve, a measure of exposure) is 516 ng·h/mL in “in vivo [1]” and 935 ng·h/mL in “in vivo [2]” (20 mg/kg). Also, the results for the “Tmax: time of Cmax in CSF” value in the data set “in vivo [1]” and in “in vivo [2]” were 20 min and 10 min, respectively. Besides, the Cmax (usually the peak of the concentration-time curve) in the data set “in vivo [2]” (20 mg/kg) was 2790 ± 180 ng/mL; in data set [3] (oral 40 mg/kg) it was “about 0.25 μg/mL”. Further, the “time within which CSF concentrations decreased to zero or near to zero” value in “in vivo [2]” (20 mg/kg) is no more than 45 min. In the data set “in vivo [2]” (R: ratio of concentration between CSF and bloodstream at Tmax), the Kp (in general, tissue or fluid exposure divided by exposure in the circulation) at 10 min was found to be 0.96. In data set [3] (iv eugenol), the “t1/2 of the second elimination phase” value is 13 to 20 min. For the same compound, the “effect on dopamine release over pre-treatment baseline” value in the data set on PC12 cells (25 µM, 5, 15, 30, 60 and 120 min, baseline 393 ± 12 pg/mL, p < 0.001 at 5, 15, 120 min, p < 0.05 at 30, 60 min) is given as “statistically significant increase”. Further, the “incubation time with the higher effect on dopamine release” value in the data set on PC12 cells (25 µM, time course 5, 15, 30, 60, 120 min, U-shaped curve) was 120 min. The “concentration giving the lower effect on dopamine release, still significant vs. basal” value in the data set on PC12 cells (0.5, 1, 2, 5 and 25 µM for 5 min, basal release 947 ± 102 pg/mL) worked out at 5 µM.

Source of the values: publication PMC9862186 (International Journal of Molecular Sciences, 2023).
